What was measured:
[1] = Antioxidant activity at pH 7.4 by hydroxyl radical scavenging assay; type: functional
[2] = test system: DNA; test: Binding affinity to calf thymus DNA by electronic absorption spectroscopy; type: nucleic-acid assay; settings: Bos taurus
[3] = test system: DNA; test: Binding affinity to calf thymus DNA by fluorescence spectroscopy; type: nucleic-acid assay; settings: Bos taurus

Row | IC50 [1] | Kb [2] | Kq [3] | SMILES
1 | 9.6 mM |  |  | OC[C@@H](O)[C@@H](O)[C@H](O)[C@H](O)CO [MANNITOL]
2 |  | 1.6 ×10⁴ /M | 0.93 ×10⁴ /M | O=C(N/N=C1\CC(c2ccc(O)cc2)Oc2cc(O)cc(O)c21)c1ccccc1O (stereo not drawn)

Reference: ChEMBL document CHEMBL1158170, “Synthesis, characterization, antioxidant activity and DNA-binding studies of two rare earth(III) complexes with naringenin-2-hydroxy benzoyl hydrazone ligand” (Eur J Med Chem, 2008)
